The values below come from US20240109917A1 (ACTELION PHARMACEUTICALS LTD, priority 2020, published 2024).

In one test the target is VEGFR2, unphosphorylated (Homo sapiens (Human), UniProt P35968). The experiment in a line: VEGFR ADP GLO Assay. It is filed as biochemical. On the technique in general: In ADP-Glo the light output rises with the ADP produced.
In test [1] the target is His6-TEV-PDGFRβ (557-1016) (Homo sapiens (Human), UniProt P09619). The experiment in a line: PDGFRβ HTRF Assay. It is filed as biochemical. The note with it: read-out: PDGFR HTRF IC50. The procedure, abridged:
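HTRF KinEASE-TK readout (665/620 nm ratio) of TK-biotin substrate phosphorylation by His-tagged PDGFRβ kinase domain. Enzyme and inhibitor preincubated 30 min, then ATP/substrate added for 3 h at room temperature before 60 min EDTA quench/detection.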
In general terms: Time-resolved FRET reads energy transfer from a long-lived donor to a nearby acceptor.

pIC50: −log10 of the molar value.

His6-TEV-PDGFRβ (557-1016), sequence (P09619 557-1016): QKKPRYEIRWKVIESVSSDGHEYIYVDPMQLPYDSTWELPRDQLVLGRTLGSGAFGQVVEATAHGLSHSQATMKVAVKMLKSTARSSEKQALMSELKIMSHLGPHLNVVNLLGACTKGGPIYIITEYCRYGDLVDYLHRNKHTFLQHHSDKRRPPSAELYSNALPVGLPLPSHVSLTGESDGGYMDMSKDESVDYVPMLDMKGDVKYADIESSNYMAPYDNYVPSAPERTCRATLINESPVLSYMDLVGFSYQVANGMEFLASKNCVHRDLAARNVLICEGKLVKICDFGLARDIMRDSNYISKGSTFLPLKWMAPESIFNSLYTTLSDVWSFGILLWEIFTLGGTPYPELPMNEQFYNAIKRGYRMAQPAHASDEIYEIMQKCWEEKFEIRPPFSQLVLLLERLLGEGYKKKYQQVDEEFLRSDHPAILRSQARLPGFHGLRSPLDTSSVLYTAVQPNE
VEGFR2, unphosphorylated, sequence (P35968 20-1356): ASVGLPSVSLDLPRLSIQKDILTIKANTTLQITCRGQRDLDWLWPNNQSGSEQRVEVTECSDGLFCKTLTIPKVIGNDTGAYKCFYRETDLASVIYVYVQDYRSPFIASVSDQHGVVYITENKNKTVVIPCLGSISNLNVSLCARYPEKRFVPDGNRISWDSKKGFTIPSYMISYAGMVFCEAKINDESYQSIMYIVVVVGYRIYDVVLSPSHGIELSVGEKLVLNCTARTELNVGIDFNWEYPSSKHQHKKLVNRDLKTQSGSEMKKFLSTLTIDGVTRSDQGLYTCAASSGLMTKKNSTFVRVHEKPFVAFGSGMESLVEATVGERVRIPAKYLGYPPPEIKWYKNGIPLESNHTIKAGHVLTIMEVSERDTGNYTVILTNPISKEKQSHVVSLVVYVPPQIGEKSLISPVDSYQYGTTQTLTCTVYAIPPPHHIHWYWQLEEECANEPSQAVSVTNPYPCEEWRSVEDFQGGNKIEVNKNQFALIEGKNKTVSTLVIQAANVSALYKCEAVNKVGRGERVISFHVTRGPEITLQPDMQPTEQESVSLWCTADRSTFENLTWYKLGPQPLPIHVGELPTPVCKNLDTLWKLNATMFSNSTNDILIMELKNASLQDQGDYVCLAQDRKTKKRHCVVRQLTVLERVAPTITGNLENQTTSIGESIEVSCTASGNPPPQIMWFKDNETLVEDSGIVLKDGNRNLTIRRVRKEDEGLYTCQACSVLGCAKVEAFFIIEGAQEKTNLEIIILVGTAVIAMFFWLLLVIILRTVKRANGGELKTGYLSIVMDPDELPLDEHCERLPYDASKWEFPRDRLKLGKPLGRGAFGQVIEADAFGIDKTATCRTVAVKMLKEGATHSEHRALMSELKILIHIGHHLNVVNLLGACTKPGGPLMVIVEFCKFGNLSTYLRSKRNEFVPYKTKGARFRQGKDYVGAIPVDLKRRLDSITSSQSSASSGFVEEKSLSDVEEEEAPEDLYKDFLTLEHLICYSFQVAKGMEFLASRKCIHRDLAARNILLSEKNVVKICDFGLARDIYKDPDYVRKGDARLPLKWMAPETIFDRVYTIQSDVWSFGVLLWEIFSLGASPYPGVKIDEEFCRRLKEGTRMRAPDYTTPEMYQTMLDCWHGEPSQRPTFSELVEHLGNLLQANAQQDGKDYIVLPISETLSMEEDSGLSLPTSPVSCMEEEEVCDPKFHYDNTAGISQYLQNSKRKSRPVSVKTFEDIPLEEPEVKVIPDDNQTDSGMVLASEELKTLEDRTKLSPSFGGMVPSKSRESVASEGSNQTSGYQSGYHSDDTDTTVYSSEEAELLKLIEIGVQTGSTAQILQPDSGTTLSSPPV

On to `COc1ncccc1-c1cn2ncc(C(=O)Nc3cc(NC(=O)CN4C[C@H](CO)OC(C)(C)C4)cnc3C)c2s1` [Example 379, (R)—N-(5-(2-(6-(hydroxymethyl)-2,2-dimethylmorpholino)acetamido)-2-methylpyridin-3-yl)-2-(2-methoxypyridin-3-yl)pyrazolo[5,1-b]thiazole-7-carboxamide], for which the pIC50 (commonly the negative decadic logarithm of the IC50, by convention in mol/L) on VEGFR2, unphosphorylated is below 5.60; in test [1], 9.40.

In the case of `COCCn1cc(-c2cn3ncc(C(=O)Nc4cc(NC(=O)[C@@H]5CCCN5C(C)C)cnc4C)c3s2)cn1` [Example 343, (S)—N-(5-(1-isopropylpyrrolidine-2-carboxamido)-2-methylpyridin-3-yl)-2-(1-(2-methoxyethyl)-1H-pyrazol-4-yl)pyrazolo[5,1-b]thiazole-7-carboxamide], the pIC50 was below 5.12 against VEGFR2, unphosphorylated and 8.46 in test [1].

Turning to `Cc1ncc(NC(=O)CN2CC3(CCOCC3)C2)cc1NC(=O)c1cnn2cc(-c3cnn4c3OCCC4)sc12` [Example 406, N-(5-(2-(7-oxa-2-azaspiro[3.5]nonan-2-yl)acetamido)-2-methylpyridin-3-yl)-2-(6,7-dihydro-5H-pyrazolo[5,1-b][1,3]oxazin-3-yl)pyrazolo[5,1-b]thiazole-7-carboxamide], the pIC50 at VEGFR2, unphosphorylated is below 5.12; in test [1], 9.40.

For the compound `COc1ncccc1-c1cn2ncc(C(=O)Nc3cc(NC(=O)CN4CCC4)cnc3C)c2s1` [Example 397, N-(5-(2-(azetidin-1-yl)acetamido)-2-methylpyridin-3-yl)-2-(2-methoxypyridin-3-yl)pyrazolo[5,1-b]thiazole-7-carboxamide], the pIC50 at VEGFR2, unphosphorylated was below 5.12; in test [1], 9.10.

For `COCCn1cc(-c2cn3ncc(C(=O)Nc4cc(NC(=O)CN5C[C@H]6CC[C@@H]5C6)cnc4C)c3s2)cn1` [Example 334, N-(5-(2-((1R,4S)-2-azabicyclo[2.2.1]heptan-2-yl)acetamido)-2-methylpyridin-3-yl)-2-(1-(2-methoxyethyl)-1H-pyrazol-4-yl)pyrazolo[5,1-b]thiazole-7-carboxamide], the pIC50 at VEGFR2, unphosphorylated was below 5.12; in test [1], 9.30.

For `COCCn1cc(-c2cn3ncc(C(=O)Nc4cc(NC(=O)CN5C6CCC5CC6)cnc4C)c3s2)cn1` [Example 340, N-(5-(2-(7-azabicyclo[2.2.1]heptan-7-yl)acetamido)-2-methylpyridin-3-yl)-2-(1-(2-methoxyethyl)-1H-pyrazol-4-yl)pyrazolo[5,1-b]thiazole-7-carboxamide], the negative logarithm of the IC50 (pIC50) against VEGFR2, unphosphorylated was below 5.12; in test [1], 9.30.

Consider `COCCn1cc(-c2cn3ncc(C(=O)Nc4cc(NC(=O)CN5CCC56CCC6)cnc4C)c3s2)cn1` [Example 333, N-(5-(2-(1-azaspiro[3.3]heptan-1-yl)acetamido)-2-methylpyridin-3-yl)-2-(1-(2-methoxyethyl)-1H-pyrazol-4-yl)pyrazolo[5,1-b]thiazole-7-carboxamide], for which the negative logarithm of the IC50 (pIC50) is below 5.12 on VEGFR2, unphosphorylated and 9.40 in test [1].

As to `Cc1ncc(NC(=O)C2CCN(C(C)C)C2)cc1NC(=O)c1cnn2cc(-c3cnn4c3OCCC4)sc12` (stereo not shown) [Example 350, 2-(6,7-dihydro-5H-pyrazolo[5,1-b][1,3]oxazin-3-yl)-N-(5-(1-isopropylpyrrolidine-3-carboxamido)-2-methylpyridin-3-yl)pyrazolo[5,1-b]thiazole-7-carboxamide], the negative-log IC50 (pIC50) was 5.20 on VEGFR2, unphosphorylated and 9.52 in test [1].

Regarding `COc1cccc(-c2cn3ncc(C(=O)Nc4cc(NC(=O)CN5C[C@H](C)O[C@@H](C)C5)cnc4C)c3s2)n1` (relative stereo) [Example 386, N-(5-(2-(trans-2,6-dimethylmorpholino)acetamido)-2-methylpyridin-3-yl)-2-(6-methoxypyridin-2-yl)pyrazolo[5,1-b]thiazole-7-carboxamide], the negative logarithm of the IC50 (pIC50) against VEGFR2, unphosphorylated was below 6.08; in test [1], 9.40.

As for `COc1ncccc1-c1cn2ncc(C(=O)Nc3cc(C(=O)NCCN4CC(C)(C)C4)cnc3C)c2s1` [Example 387, N-(5-((2-(3,3-dimethylazetidin-1-yl)ethyl)carbamoyl)-2-methylpyridin-3-yl)-2-(2-methoxypyridin-3-yl)pyrazolo[5,1-b]thiazole-7-carboxamide], the negative logarithm of the IC50 (pIC50) against VEGFR2, unphosphorylated is below 5.12; in test [1], 9.70.

Consider `Cc1ncc(NC(=O)CN2CCC3(CC2)CC3)cc1NC(=O)c1cnn2cc(-c3cnn(CCO)c3)sc12` [Example 31, N-(5-(2-(6-azaspiro[2.5]octan-6-yl)acetamido)-2-methylpyridin-3-yl)-2-(1-(2-hydroxyethyl)-1H-pyrazol-4-yl)pyrazolo[5,1-b]thiazole-7-carboxamide], for which the negative logarithm of the IC50 (pIC50) against VEGFR2, unphosphorylated was below 5.12; in test [1], 9.22.

`Cc1ncc(NC(=O)C2CCN(C(C)C)C2)cc1NC(=O)c1cnn2cc(-c3cnn(C)c3C)sc12` (stereo not shown) [Example 356, 2-(1,5-dimethyl-1H-pyrazol-4-yl)-N-(5-(1-isopropylpyrrolidine-3-carboxamido)-2-methylpyridin-3-yl)pyrazolo[5,1-b]thiazole-7-carboxamide]: the negative logarithm of the IC50 (pIC50) against VEGFR2, unphosphorylated was below 5.12; in test [1], 9.30.

As for `COc1ccncc1-c1cn2ncc(C(=O)Nc3cc(NC(=O)CN4C[C@H](C)O[C@@H](C)C4)cnc3C)c2s1` (relative stereo) [Example 385, N-(5-(2-(trans-2,6-dimethylmorpholino)acetamido)-2-methylpyridin-3-yl)-2-(4-methoxypyridin-3-yl)pyrazolo[5,1-b]thiazole-7-carboxamide], the negative-log IC50 (pIC50) at VEGFR2, unphosphorylated was below 6.08; in test [1], 9.10.

Regarding `Cc1ncc(NC(=O)CN2CCC(C)(C)C2)cc1NC(=O)c1cnn2cc(-c3cnn(CCO)c3)sc12` [Example 28, N-(5-(2-(3,3-dimethylpyrrolidin-1-yl)acetamido)-2-methylpyridin-3-yl)-2-(1-(2-hydroxyethyl)-1H-pyrazol-4-yl)pyrazolo[5,1-b]thiazole-7-carboxamide], the pIC50 on VEGFR2, unphosphorylated is below 5.12; in test [1] it was 9.22.

In the case of `Cc1ncc(NC(=O)C2CN(C(C)C)C2)cc1NC(=O)c1cnn2cc(-c3cn(C)nc3C)sc12` [Example 354, 2-(1,3-dimethyl-1H-pyrazol-4-yl)-N-(5-(1-isopropylazetidine-3-carboxamido)-2-methylpyridin-3-yl)pyrazolo[5,1-b]thiazole-7-carboxamide], the negative-log IC50 (pIC50) against VEGFR2, unphosphorylated is below 5.12; in test [1], 9.70.

Turning to `Cc1ncc(NC(=O)CN2CCC3(CC3)C2)cc1NC(=O)c1cnn2cc(-c3cnn(CCO)c3)sc12` [Example 32, N-(5-(2-(5-azaspiro[2.4]heptan-5-yl)acetamido)-2-methylpyridin-3-yl)-2-(1-(2-hydroxyethyl)-1H-pyrazol-4-yl)pyrazolo[5,1-b]thiazole-7-carboxamide], the pIC50 against VEGFR2, unphosphorylated was below 5.12; in test [1], 9.15.

Regarding `Cc1ncc(NC(=O)CN2C[C@H](C)O[C@@H](C)C2)cc1NC(=O)c1cnn2cc(-c3cnc(N)c(F)c3)sc12` (relative stereo) [Example 372, 2-(6-amino-5-fluoropyridin-3-yl)-N-(5-(2-(trans-2,6-dimethylmorpholino)acetamido)-2-methylpyridin-3-yl)pyrazolo[5,1-b]thiazole-7-carboxamide], the pIC50 was below 5.60 at VEGFR2, unphosphorylated and 9.22 in test [1].

Take `Cc1ncc(NC(=O)CN2CCC[C@@H]2C)cc1NC(=O)c1cnn2cc(-c3ccnc(N4CCOCC4)c3)sc12` [Example 352, (S)—N-(2-methyl-5-(2-(2-methylpyrrolidin-1-yl)acetamido)pyridin-3-yl)-2-(2-morpholinopyridin-4-yl)pyrazolo[5,1-b]thiazole-7-carboxamide]: the negative-log IC50 (pIC50) against VEGFR2, unphosphorylated is below 5.12; in test [1] it was 9.52.

Take `COCCn1cc(-c2cn3ncc(C(=O)Nc4cc(NC(=O)CN5CCCCC5)cnc4C)c3s2)cn1` [Example 338, 2-(1-(2-methoxyethyl)-1H-pyrazol-4-yl)-N-(2-methyl-5-(2-(piperidin-1-yl)acetamido)pyridin-3-yl)pyrazolo[5,1-b]thiazole-7-carboxamide]: the negative-log IC50 (pIC50) at VEGFR2, unphosphorylated is below 5.12; in test [1], 9.40.

In the case of `Cc1ncc(NC(=O)[C@@H]2CCCN2C)cc1NC(=O)c1cnn2cc(-c3cnn4c3OCCC4)sc12` [Example 349, (S)-2-(6,7-dihydro-5H-pyrazolo[5,1-b][1,3]oxazin-3-yl)-N-(2-methyl-5-(1-methylpyrrolidine-2-carboxamido)pyridin-3-yl)pyrazolo[5,1-b]thiazole-7-carboxamide], the pIC50 against VEGFR2, unphosphorylated was below 5.12; in test [1], 9.22.

`Cc1ncc(NC(=O)CN2C[C@@H](CO)OC(C)(C)C2)cc1NC(=O)c1cnn2cc(-c3cnn(C)c3)sc12` [Example 377, (S)—N-(5-(2-(6-(hydroxymethyl)-2,2-dimethylmorpholino)acetamido)-2-methylpyridin-3-yl)-2-(1-methyl-1H-pyrazol-4-yl)pyrazolo[5,1-b]thiazole-7-carboxamide]: the negative logarithm of the IC50 (pIC50) against VEGFR2, unphosphorylated was below 5.12; in test [1], 9.10.

On to `Cc1ncc(C(=O)NCCN2CCCC2(C)C)cc1NC(=O)c1cnn2cc(-c3cnn(Cc4cc(O)no4)c3)sc12` [Example 363, N-(5-((2-(2,2-dimethylpyrrolidin-1-yl)ethyl)carbamoyl)-2-methylpyridin-3-yl)-2-(1-((3-hydroxyisoxazol-5-yl)methyl)-1H-pyrazol-4-yl)pyrazolo[5,1-b]thiazole-7-carboxamide], for which the pIC50 against VEGFR2, unphosphorylated was below 5.12; in test [1], 8.89.

For `Cc1ncc(NC(=O)CN2CC3CCC(C2)O3)cc1NC(=O)c1cnn2cc(-c3cc[nH]c3)sc12` [Example 366, N-(5-(2-(8-oxa-3-azabicyclo[3.2.1]octan-3-yl)acetamido)-2-methylpyridin-3-yl)-2-(1H-pyrrol-3-yl)pyrazolo[5,1-b]thiazole-7-carboxamide], the pIC50 was 6.24 against VEGFR2, unphosphorylated and 9.52 in test [1].
